Data from US10106522B2, “Benzimidazole derivatives as antihistamine agents” (Faes Farma, S.A., priority 2014, dated 2018).

What follows are molecules tested against human histamine H1-receptor (Homo sapiens (Human), UniProt P35367) (assay: Affinity for histamine H1-receptor: 3H-pyrilamine binding to membranes of CHO cells transfected with the human H1 receptor). Conditions: comparative compounds from the state of the art; same protocol; read-out: IC50, affinity for human histamine H1-receptor for comparative compounds.
Chain of human histamine H1-receptor (P35367 whole entry): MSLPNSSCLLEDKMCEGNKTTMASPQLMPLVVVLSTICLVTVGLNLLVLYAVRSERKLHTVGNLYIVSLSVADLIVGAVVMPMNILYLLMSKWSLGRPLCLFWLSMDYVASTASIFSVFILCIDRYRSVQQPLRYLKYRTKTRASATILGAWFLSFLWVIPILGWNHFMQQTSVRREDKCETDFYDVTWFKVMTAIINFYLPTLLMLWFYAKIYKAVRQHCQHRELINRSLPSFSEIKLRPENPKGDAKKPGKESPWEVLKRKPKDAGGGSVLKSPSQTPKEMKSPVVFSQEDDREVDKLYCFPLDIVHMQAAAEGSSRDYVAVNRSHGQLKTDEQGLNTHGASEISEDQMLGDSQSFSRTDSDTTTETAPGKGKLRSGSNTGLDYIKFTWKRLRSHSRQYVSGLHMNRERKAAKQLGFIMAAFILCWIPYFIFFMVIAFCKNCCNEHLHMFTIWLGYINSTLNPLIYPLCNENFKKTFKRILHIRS
Procedure: Affinity for histamine H1-receptor was determined by binding studies to H1 receptors. The sample used is a suspension of membranes of CHO cells transfected with the human H1 receptor (5 mg/ml, PerkinElmer), stored at −80° C. until use. After thawing, the membranes were homogenized in assay buffer (50 mM Na/K phosphate) prepared in purified water and kept at room temperature (pH 7.4). The assay was performed in 96-well microplates. In each well, 25 μl of buffer and 25 μl of vehicle (total binding) or 10 μM pyrilamine (nonspecific binding) or the products to be tested was added. Subsequently, 200 μl of the membrane suspension was added to all wells and the microtiter plate was preincubated at 25° C. for 15 min. After this time, 25 μl of 3H-pyrilamine (1.5 nM) was added and the reaction was allowed to incubate for 60 min at 25° C. Then, free radioligand was quickly separated from bound radioligand by vacuum filtration (Multiscreen microplate Screener), performing 10 washes with assay buffer (4° C.). Subsequently 45 μl of scintillation fluid was added to each well and after sealing of the microplate, the radioactivity was quantified in a liquid scintillation counter (TopCount). The graphs of the inhibition curves and calculation the IC50 value were generated with the GraphPad Prism program.
Affinity for histamine H1-receptor of four compounds from the state of the art was determined by binding studies to H1 receptors using the same protocol as described above. The graphs of the inhibition curves and calculation the IC50 value were generated also with the GraphPad Prism program.

IC50	SMILES
424 nM	CCOCCn1c(C2CCN(CCc3ccc(C(C)(C)C)cc3)CC2)nc2ccccc21 [reference compound]
1990 nM	CCOCCn1c(C2CCN(CCOc3ccc(CC(=O)O)cc3)CC2)nc2ccccc21 [reference compound]
271 nM	O=C(O)Cc1ccc(OCCN2CCC(c3nc4ccccc4n3CCOc3ccccc3)CC2)cc1 [reference compound]
260 nM	O=C(O)c1ccc(OCCN2CCC(c3nc4ccccc4n3CCOc3ccccc3)CC2)cc1 [reference compound]

Same assay, conditions: compounds of the invention; 3H-pyrilamine 1.5 nM, 60 min at 25° C., CHO cell membranes; read-out: IC50, affinity for human histamine H1-receptor

IC50	SMILES
25 nM	CCOCCn1c(C2CCN(CCO)CC2)nc2ccccc21
28 nM	CCOCCn1c(C2CCN(CCCO)CC2)nc2ccccc21
93 nM	CCOCCn1c(C2CCN(CCOC)CC2)nc2ccccc21
54 nM	CCOCCn1c(C2CCN(CCOC(C)=O)CC2)nc2ccccc21
195 nM	COC(=O)COCCN1CCC(c2nc3ccccc3n2CCOc2ccccc2)CC1 [drawing 32]

Second part, the molecule before the results:

SMILES	IC50
CCOCCOCCN1CCC(c2nc3ccccc3n2CCOCC)CC1	115 nM
OCCN1CCC(c2nc3ccccc3n2Cc2ccccn2)CC1	175 nM
CCOCCn1c(C2CCN(CCOCC(=O)OCC)CC2)nc2ccccc21	169 nM

Each molecule was assayed on histamine papules (assay: Antihistaminic activity: histamine papules in rats (Evans blue extraction)). Conditions: 20 mg/kg oral gavage, intradermal histamine one hour after administration.
Format: in vivo
Procedure: Antihistaminic activity: histamine papules [Mota I., Life Sci., 1963, 12, 917-927; Lefebvre P. et al., C. R. Soc. Biol., 1962, 156, 183-186; and Udaka K. et al., Proc Soc Exp Biol Med, 1970, 133, 1384-1387]
Rats, males and/or females (110-160 g) were used, kept under the usual conditions of temperature and humidity. Previous day, backs of the animals were shaved and since that time (16-24 h) animals were subjected to solid fast but supplied ad libitum with an aqueous solution of sucrose (8%) and sodium chloride (0.2%). The compounds to be tested were dissolved in tartaric acid (Probus 015420) 0.1 M at a concentration of 5 mg/ml and then diluted with water until the concentration to be tested. This suspension or solution of the compound to be tested was administered by rigid oral gavage at 10 mL/kg. The control group received by the same administration mode a solution of tartaric acid (Probus 015420) 0.1 M in water. One hour after oral administration (products, patterns or vehicle), and under light ether anesthesia, two bumps were made on the shaved back by intradermal injection of Histamine hydrochloride (Sigma H-7250) dissolved in sterile saline (10 mg/0.1 mL/papule). Immediately after, dye injection of Evans blue (Merck No. 3169) dissolved in sterile saline (25 mg/kg/4 mL) was administered intravenously. […] The concentration of extracted Evans blue was determined by microplate reader.

SMILES	% inhibition, histamine papules
COC(=O)COCCN1CCC(c2nc3ccccc3n2CCOc2ccccc2)CC1 [drawing 37]	45.03%
